Counter-ions that a name gives are not always drawn.

The text below walks through data of the supplement of paper PMC12137928.

In the assay the test system is HCT116. Particulars: 72 h. The method, boiled down: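 For IC50 and maximal efficacy, four-parameter Hill fits were used. Input values were CellTiter-Glo luminescence from HCT116 cells seeded at 250 per well in 1536-well plates, normalized to vehicle (0%) and positive control (-100%). Pattern correction followed normalization.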

With `C[C@]12CCC(=O)C=C1CC[C@@H]1[C@@H]2[C@@H](O)C[C@@]2(C)[C@H]1CC[C@]2(O)C(=O)COC(=O)CCC(=O)O` [Hydrocortisone 21-hemisuccinate sodium salt], the IC50 cell viability by setting is: (ICRF193 0 nM) more than 45.8 µM; (ICRF193 200 nM) more than 45.8 µM.

Turning to `C[C@]12CCC(=O)C=C1CC[C@@H]1[C@@H]2[C@@H](O)C[C@@]2(C)[C@H]1CC[C@]2(O)C(=O)COP(=O)(O)O` [Hydrocortisone Sodium Phosphate], the IC50 cell viability is, setting by setting: (ICRF193 0 nM) more than 45.8 µM; (ICRF193 200 nM) more than 45.8 µM.

For the compound `CC(=O)OCC(=O)[C@@]1(O)CC[C@H]2[C@@H]3CCC4=CC(=O)CC[C@]4(C)[C@H]3[C@@H](O)C[C@@]21C` [Hydrocortisone acetate], the IC50 cell viability by setting is: (ICRF193 0 nM) more than 45.8 µM; (ICRF193 200 nM) more than 45.8 µM.

Turning to `CCCC(=O)O[C@]1(C(=O)COC(=O)CC)CC[C@H]2[C@@H]3CCC4=CC(=O)CC[C@]4(C)[C@H]3[C@@H](O)C[C@@]21C` [Hydrocortisone buteprate], the IC50 cell viability reads like this: (ICRF193 0 nM) more than 45.8 µM; (ICRF193 200 nM) more than 45.8 µM.

For `CCCCC(=O)O[C@]1(C(=O)CO)CC[C@H]2[C@@H]3CCC4=CC(=O)CC[C@]4(C)[C@H]3[C@@H](O)C[C@@]21C` [Hydrocortisone valerate], the IC50 cell viability was more than 45.8 µM (ICRF193 0 nM) and more than 45.8 µM (ICRF193 200 nM).

Regarding `C[C@]12CCC(=O)C=C1CC[C@@H]1[C@@H]2[C@@H](O)C[C@@]2(C)[C@H]1CC[C@]2(O)C(=O)CO` [Hydrocortisone], the IC50 cell viability reads like this: (ICRF193 0 nM) more than 45.8 µM; (ICRF193 200 nM) more than 45.8 µM.

Turning to `COc1c2c(cc3c1OCO3)CCN(C)C2` [Hydrocotarnine hydrobromide], the IC50 cell viability was more than 45.8 µM (ICRF193 0 nM) and more than 45.8 µM (ICRF193 200 nM).

On to `NS(=O)(=O)c1cc2c(cc1C(F)(F)F)NCNS2(=O)=O` [Hydroflumethiazide], for which the IC50 cell viability (ICRF193 0 nM) was more than 45.8 µM and the IC50 cell viability (ICRF193 200 nM) was more than 45.8 µM.

On to `CC[C@H]1CN2CC[C@H]1C[C@@H]2[C@@H](O)c1ccnc2ccc(OC)cc12` [Hydroquinidine HCl], for which the IC50 cell viability reads like this: (ICRF193 0 nM) more than 45.8 µM; (ICRF193 200 nM) more than 45.8 µM.

Turning to `Oc1ccc(O)cc1` [Hydroquinone], the IC50 cell viability by setting is: (ICRF193 0 nM) more than 45.8 µM; (ICRF193 200 nM) more than 45.8 µM.

With `CCN(CCO)CCCC(C)Nc1ccnc2cc(Cl)ccc12` (configuration not stated) [Hydroxychloroquine sulfate], the IC50 cell viability is, setting by setting: (ICRF193 0 nM) more than 45.8 µM; (ICRF193 200 nM) more than 45.8 µM.

`CC(CC=O)CCCC(C)(C)O` (configuration not stated) [Hydroxycitronellal] showed an IC50 cell viability (ICRF193 0 nM) of more than 45.8 µM and an IC50 cell viability (ICRF193 200 nM) of more than 45.8 µM.

Consider `N=C(N)c1ccc(/C=C/c2ccc(C(=N)N)cc2O)cc1` [Hydroxystilbamidine bis(methanesulfonate)], for which the IC50 cell viability was more than 45.8 µM (ICRF193 0 nM) and more than 45.8 µM (ICRF193 200 nM).

`NC(=O)NO` [Hydroxyurea] displayed an IC50 cell viability (ICRF193 0 nM) of more than 45.8 µM and an IC50 cell viability (ICRF193 200 nM) of more than 45.8 µM.

As to `OCCOCCN1CCN(C(c2ccccc2)c2ccc(Cl)cc2)CC1` (configuration not stated) [Hydroxyzine], the IC50 cell viability is more than 45.8 µM (ICRF193 0 nM) and more than 45.8 µM (ICRF193 200 nM).

`CNC1CC(N)C(O)C(OC2OC(CO)C(O)C3OC4(OC(C(N)CO)C(O)C(O)C4O)OC23)C1O` (configuration not stated) [Hygromycin B]: the IC50 cell viability runs as follows: (ICRF193 0 nM) more than 45.8 µM; (ICRF193 200 nM) more than 45.8 µM.

Turning to `N=C1NC(=O)N2CC12` (configuration not stated) [IMEXON], the IC50 cell viability runs as follows: (ICRF193 0 nM) more than 45.8 µM; (ICRF193 200 nM) more than 45.8 µM.

As to `O=C(O[C@H]1[C@H](OC(=O)c2cccnc2)[C@@H](OC(=O)c2cccnc2)[C@H](OC(=O)c2cccnc2)[C@@H](OC(=O)c2cccnc2)[C@H]1OC(=O)c1cccnc1)c1cccnc1` [INOSITOL NIACINATE], the IC50 cell viability is more than 45.8 µM (ICRF193 0 nM) and more than 45.8 µM (ICRF193 200 nM).

For `CC[C@H]1[C@@H](O)[C@@H]2[C@H](CC[C@]3(C)[C@@H]([C@H](C)CCC(=O)O)CC[C@@H]23)[C@@]2(C)CC[C@@H](O)C[C@@H]12` [INT-747 (Obeticholic acid)], the IC50 cell viability is, setting by setting: (ICRF193 0 nM) more than 45.8 µM; (ICRF193 200 nM) more than 45.8 µM.

Turning to `CN(CC(O)CO)C(=O)c1c(I)c(NC(=O)C(CO)CO)c(I)c(C(=O)N(C)CC(O)CO)c1I` (configuration not stated) [IOBITRIDOL], the IC50 cell viability runs as follows: (ICRF193 0 nM) more than 45.8 µM; (ICRF193 200 nM) more than 45.8 µM.

The compound `CC(C)CCCC(C)NC(C)C` (configuration not stated) [IPROHEPTINE] displayed an IC50 cell viability (ICRF193 0 nM) of more than 45.8 µM and an IC50 cell viability (ICRF193 200 nM) of more than 45.8 µM.

Turning to `CNCC(=O)OCc1cccnc1N(C)C(=O)OC(C)[n+]1cnn(C[C@](O)(c2cc(F)ccc2F)[C@@H](C)c2nc(-c3ccc(C#N)cc3)cs2)c1` (some centres not stated) [ISAVUCONAZONIUM SULFATE], the IC50 cell viability by setting is: (ICRF193 0 nM) more than 45.8 µM; (ICRF193 200 nM) more than 45.8 µM.

For `CCC(NC(C)C)C(O)c1ccc(O)c(O)c1` (configuration not stated) [ISOETHARINE MESYLATE], the IC50 cell viability (ICRF193 0 nM) is more than 45.8 µM and the IC50 cell viability (ICRF193 200 nM) is more than 45.8 µM.

Take `Cc1c(F)cc2c(=O)c(C(=O)O)cn3c2c1CCC3C` (configuration not stated) [Ibafloxacine]: the IC50 cell viability was more than 45.8 µM (ICRF193 0 nM) and more than 45.8 µM (ICRF193 200 nM).

As for `CCCCCN(C)CCC(O)(P(=O)(O)O)P(=O)(O)O` [Ibandronate sodium hydrate], the IC50 cell viability is, setting by setting: (ICRF193 0 nM) more than 45.8 µM; (ICRF193 200 nM) more than 45.8 µM.

With `CC(C)C(=O)c1c(C(C)C)nn2ccccc12` [Ibudilast], the IC50 cell viability reads like this: (ICRF193 0 nM) more than 45.8 µM; (ICRF193 200 nM) more than 45.8 µM.

`CC(C)Cc1ccc(CC(=O)O)cc1` [Ibufenac] came in with an IC50 cell viability (ICRF193 0 nM) of more than 45.8 µM and an IC50 cell viability (ICRF193 200 nM) of more than 45.8 µM.

`CC(C)Cc1ccc(C(C)C(=O)O)cc1` (configuration not stated) [Ibuprofen lysine]: the IC50 cell viability is more than 45.8 µM (ICRF193 0 nM) and more than 45.8 µM (ICRF193 200 nM).

Turning to `CC(C)Cc1ccc(C(C)C(=O)OCc2ccccn2)cc1` (configuration not stated) [Ibuprofen piconol], the IC50 cell viability (ICRF193 0 nM) was more than 45.8 µM and the IC50 cell viability (ICRF193 200 nM) is more than 45.8 µM.

On to `CCCCCCCN(CC)CCCC(O)c1ccc(NS(C)(=O)=O)cc1` (configuration not stated) [Ibutilide fumarate], for which the IC50 cell viability was more than 45.8 µM (ICRF193 0 nM) and more than 45.8 µM (ICRF193 200 nM).

`N=C(N)NCCC[C@@H](N)C(=O)N[C@@H](CCCNC(=N)N)C(=O)N1CCC[C@H]1C(=O)N1C[C@H](O)C[C@H]1C(=O)NCC(=O)N[C@@H](Cc1cccs1)C(=O)N[C@@H](CO)C(=O)N1Cc2ccccc2C[C@@H]1C(=O)N1[C@H](C(=O)N[C@@H](CCCNC(=N)N)C(=O)O)C[C@@H]2CCCC[C@@H]21` [Icatibant]: the IC50 cell viability reads like this: (ICRF193 0 nM) more than 45.8 µM; (ICRF193 200 nM) more than 45.8 µM.

In the case of `O=c1[nH]c(=O)n([C@H]2C[C@H](O)[C@@H](CO)O2)cc1I` [Idoxuridine], the IC50 cell viability reads like this: (ICRF193 0 nM) more than 45.8 µM; (ICRF193 200 nM) more than 45.8 µM.

Turning to `CC(C(O)c1ccc(O)cc1)N1CCC(Cc2ccccc2)CC1` (configuration not stated) [Ifenprodil], the IC50 cell viability was more than 45.8 µM (ICRF193 0 nM) and more than 45.8 µM (ICRF193 200 nM).

As to `O=P1(NCCCl)OCCCN1CCCl` (configuration not stated) [Ifomide], the IC50 cell viability reads like this: (ICRF193 0 nM) more than 45.8 µM; (ICRF193 200 nM) more than 45.8 µM.

Consider `CS(=O)(=O)Nc1cc2occ(NC=O)c(=O)c2cc1Oc1ccccc1` [Iguratimod], for which the IC50 cell viability was more than 45.8 µM (ICRF193 0 nM) and more than 45.8 µM (ICRF193 200 nM).

In the case of `CC#CCC(C)[C@H](O)/C=C/[C@@H]1[C@H]2C/C(=C/CCCC(=O)O)C[C@H]2C[C@H]1O` (some centres not stated) [Iloprost], the IC50 cell viability runs as follows: (ICRF193 0 nM) more than 45.8 µM; (ICRF193 200 nM) more than 45.8 µM.

Regarding `Cc1ccc(NC(=O)c2ccc(CN3CCN(C)CC3)cc2)cc1Nc1nccc(-c2cccnc2)n1` [Imatinib], the IC50 cell viability runs as follows: (ICRF193 0 nM) more than 45.8 µM; (ICRF193 200 nM) more than 45.8 µM.

With `O=[N+]([O-])/N=C1\NCCN1Cc1ccc(Cl)nc1` [Imidacloprid], the IC50 cell viability runs as follows: (ICRF193 0 nM) more than 45.8 µM; (ICRF193 200 nM) more than 45.8 µM.

Take `Cc1nccn1CCC(C(N)=O)(c1ccccc1)c1ccccc1` [Imidafenacin]: the IC50 cell viability runs as follows: (ICRF193 0 nM) more than 45.8 µM; (ICRF193 200 nM) more than 45.8 µM.

On to `CCOC(=O)[C@H](CCc1ccccc1)N[C@@H](C)C(=O)N1C(=O)N(C)C[C@H]1C(=O)O` [Imidapril hydrochloride], for which the IC50 cell viability by setting is: (ICRF193 0 nM) more than 45.8 µM; (ICRF193 200 nM) more than 45.8 µM.

`O=C(NCNC(=O)NC1C(=O)NC(=O)N1CO)NC1C(=O)NC(=O)N1CO` (configuration not stated) [Imidazolidinyl urea]: the IC50 cell viability by setting is: (ICRF193 0 nM) more than 45.8 µM; (ICRF193 200 nM) more than 45.8 µM.

As for `O=C(Nc1cccc(C2=NCCN2)c1)Nc1cccc(C2=NCCN2)c1` [Imidocarb dipropionate], the IC50 cell viability was more than 45.8 µM (ICRF193 0 nM) and more than 45.8 µM (ICRF193 200 nM).

For the compound `C[C@@H](O)[C@H]1C(=O)N2C(C(=O)O)=C(SCCNC=N)C[C@H]12` [Imipenem], the IC50 cell viability by setting is: (ICRF193 0 nM) more than 45.8 µM; (ICRF193 200 nM) more than 45.8 µM.

Take `CC(C)Cn1cnc2c(N)nc3ccccc3c21` [Imiquimod]: the IC50 cell viability was more than 45.8 µM (ICRF193 0 nM) and more than 45.8 µM (ICRF193 200 nM).

For the compound `CS(=O)(=O)OCCCNCCCOS(C)(=O)=O` [Improsulfan tosylate], the IC50 cell viability runs as follows: (ICRF193 0 nM) more than 45.8 µM; (ICRF193 200 nM) more than 45.8 µM.

Consider `CC1Cc2ccccc2N1NC(=O)c1ccc(Cl)c(S(N)(=O)=O)c1` (configuration not stated) [Indapamide], for which the IC50 cell viability is more than 45.8 µM (ICRF193 0 nM) and more than 45.8 µM (ICRF193 200 nM).

As for `CC(C)NCCCC1(C(N)=O)c2ccccc2-c2ccccc21` [Indecainide], the IC50 cell viability runs as follows: (ICRF193 0 nM) more than 45.8 µM; (ICRF193 200 nM) more than 45.8 µM.

With `O=C1/C(=C2\Nc3ccc(S(=O)(=O)O)cc3C2=O)Nc2ccc(S(=O)(=O)O)cc21` [Indigo carmine], the IC50 cell viability is, setting by setting: (ICRF193 0 nM) more than 45.8 µM; (ICRF193 200 nM) more than 45.8 µM.

The compound `O=C1/C(=C2\Nc3ccccc3C2=O)Nc2ccccc21` [Indigo] registered an IC50 cell viability (ICRF193 0 nM) of more than 45.8 µM and an IC50 cell viability (ICRF193 200 nM) of more than 45.8 µM.

For `CC(C)(C)NC(=O)[C@@H]1CN(Cc2cccnc2)CCN1C[C@@H](O)C[C@@H](Cc1ccccc1)C(=O)N[C@H]1c2ccccc2C[C@H]1O` [Indinavir sulfate], the IC50 cell viability runs as follows: (ICRF193 0 nM) more than 45.8 µM; (ICRF193 200 nM) more than 45.8 µM.

Consider `c1ccc2[nH]ccc2c1` [Indole], for which the IC50 cell viability was more than 45.8 µM (ICRF193 0 nM) and more than 45.8 µM (ICRF193 200 nM).
